Consider one molecule from patent EP4389132A1 (priority 2021, dated 2023).

The test system of assay [1] is coronavirus (SARS-CoV-2). The experiment in a line: Antiviral test of processed non-woven fabric according to ISO 18184, plaque method. Format: cell-based. The note with it: polyethylene terephthalate non-woven fabric immersed in 2% (V/V) aqueous solution, pickup rate 200%, dried at 110°C; control 6.63.
Assay [2] relates to influenza A/Kitakyushu/159/93 (H3N2). As to the kind of experiment: Antiviral properties of treated natural rubber glove film, plaque method on MDCK cells. The note with it: glove immersed in 1% (V/V) aqueous solution for 10 minutes, dried; virus contact 1 hour at room temperature; control 6.78. Format: cell-based, influenza virus.
Assay [3] has as its target T1, binding of SARS-CoV-2 to ACE2 (UniProt P0DTC2+Q9BYF1).
T1 construct: purchased RayBiotech Life, Inc
The experiment in a line: COVID-19 Spike-ACE2 Binding Assay Kit (RayBiotech): ACE2 protein binding to S-protein adsorption plate, absorbance at 450 nm. Also noted: species or system human.

In the case of `O[C@H]1[C@H](O)[C@@H](O)[C@H](O)[C@@H](O)[C@H]1O` [Myo-inositol, myo-inositol], the Viral infectivity titer in assay [1] is reported as 2.7 PFU/0.1 mL, Log10; in assay [2] it was 4.1 PFU/0.1 mL, Log10. Moreover, in assay [3] (Concentration 2 % (V/V), relative binding rate, control = 1.00), the Virus binding rate is reported as 1.00. Moreover, the “binding inhibitory effect on the binding of SARS-CoV-2 to ACE2 (in words)” value in assay [3] (summary of Table 1) is given as “no binding inhibitory effect was observed”.
